Experimental data as given in patent publication US6958323B2 (priority 1997, dated 2005).
pEC50: −log10 of the molar value. Like-named read-outs stand apart in the source and are kept apart here.

Columns and labels:
[1] = tested on: rat striatal synaptosomes; format: cell-based
[2] = tested on: rat striatal synaptosomes; details: cited from earlier work
[3] = tested on: rat hippocampal synaptosomes; details: read-out: EC50 for release of hippocampal norepinephrine; cited from earlier work

Compound	Block of nicotine-stimulated [3H]-dopamine release [1]	pEC50 ([2]; read-out: EC50 for increase of [3H]-dopamine release)	pEC50 ([2]; read-out: EC50 for release of striatal dopamine)	pEC50 [3]
CNC1(C)C2CCC(C2)C1(C)C (stereo not shown) [mecamylamine]	fully blocked	–	–	–
CN1CCCC1c1cccnc1 (stereo not shown) [nicotine]	–	6.80	6.80	5.19
